Source: publication PMC8036666, “Biological and Physico-Chemical Characteristics of Arginine-Rich Peptide Gemini Surfactants with Lysine and Cystine Spacers” (International Journal of Molecular Sciences, 2021)
≈ marks a conversion by molar mass, not a printed value. Like-named read-outs stand apart in the source and are kept apart here. Marks after values point to notes of the source that are not given here. Where a SMILES comes first, the peptide text is derived from it. Bridges are numbered along the chain shown (N, C = ends). Roman numbers before positions name the chains, in order. Side-chain parts run from the residue outwards. The star is where a group is joined. Myristoyl = CCCCCCCCCCCCCC(=O)*; Lauroyl = CCCCCCCCCCCC(=O)*; Decanoyl = CCCCCCCCCC(=O)*; Octanoyl = CCCCCCCC(=O)*

How the values were obtained:
[1] = test system: human red blood cells (hRBCs); assay: Hemolysis assay; type: cell-based; details: 1 h
Description: The hemolysis assay was performed by using the method reported previously. Fresh human red blood cells (hRBCs) with anticoagulant (EDTA) were rinsed three times with a PBS by centrifugation at 800× g for 10 min and diluted with PBS. The compounds were serially diluted on a 96-well microtiter polystyrene plate, and hRBCs were added up to a final volume of 100 μL. The compound concentration ranged between 0.5 and 256 μg/mL and the final hRBCs concentration was 4% (v/v). Controls for zero (blank) and 100% hemolysis consisted of hRBCs suspended in PBS and 1% of Triton-X 100 (Carl Roth GmbH, Karlsruhe, Germany), respectively. The plate was incubated for 1 h at 37 °C and then centrifuged (800× g, 10 min, 4 °C). Subsequently, the supernatant was […] to new microtiter plates, and the absorbance at 540 nm was measured (Multiskan GO Microplate Spectrophotometer, Thermo Fisher Scientific, Vantaa, Finland). All experiments were conducted in triplicate. HC50 was calculated using an ic50.tk tool. The protocol of the study was approved by the local Bioethics Committee at the Medical University of Gdańsk (NKBBN/262/2019, approval date: 10 June 2019).

P. aeruginosa ATCC 9027 = type: cell-based, Pseudomonas aeruginosa
Description: (§1) Minimal inhibitory concentrations of lipopeptides were determined in the presence of human serum to evaluate the effect of enzymatic degradation and protein binding of lipopeptides on antimicrobial activity. Serum concentrations were 1% and 10% (v/v). S. aureus (ATCC 33591), P. aeruginosa (ATCC 9027), and C. glabrata (ATCC 15126) were selected to this study.
(§2) The MICs were determined by the broth microdilution method according to the Clinical and Laboratory Standard Institute guidelines. For this purpose, initial inoculums of bacteria (5 × 10^5 CFU/mL) in MHB and yeasts (2 × 10^3 CFU/mL) in RPMI-1640 with 2% D-glucose were exposed to the ranging concentration of lipopeptides (0.5–256 μg/mL) and incubated at 37 °C for 18 h and 24 h, respectively. The experiments were conducted on 96-well microtiter polystyrene plates (Kartell, Noviglio, Italy). The growth was assessed visually after incubation, and the MIC was assumed as the lowest peptide concentration at which a noticeable growth of microorganisms was inhibited. All experiments were conducted in triplicate.
(§3) The MICs were determined in the presence of normal human serum (NHS; Sigma-Aldrich, Human Serum, Normal) in concentrations of 1 and 10% (v/v). NHS was stored frozen at −20 °C and thawed just before use. Microorganisms were cultivated as described in 3.4.1. Serial dilutions of compounds, inoculum density, medium, and incubation conditions were prepared as described in Section 3.4.2. Stock solutions of test compounds were prepared in appropriate culture medium.

S. aureus ATCC 33591 = type: cell-based, Staphylococcus aureus
Description: as §1, §2, §3

C. glabrata ATCC 15126 = type: cell-based, Candida glabrata
Description: as §1, §2, §3

[2] = test system: E. coli ML-35 (ATCC 43827)
Description: (§4) The permeabilization of E. coli ML-35 (ATCC 43827) membranes was studied for selected compounds (A4, B2, C2, B7, and C7) to compare their activity and membrane disruption over time. […] For OM and IM permeabilization, CENTA and ONPG were used, respectively. The permeabilization of OM causes the release of periplasmic β-lactamase, which hydrolyzes CENTA’s β-lactam ring to form a chromophore, 2-nitro-5-thiobenzoate (TNB) anion, while the disruption of IM results in the release of β-galactosidase, which hydrolyzes ONPG into galactose and a chromophore, ortho-nitrophenol (ONP). Both products of enzymatic reaction absorb light at 405 nm.
as §2
Inner and outer membranes permeabilization kinetics were evaluated using Escherichia coli ML-35 (ATCC 43827) and chromogenic substrates—CENTA (BioVision, Milpitas, CA, USA) and o-nitrophenyl-β-d-galactopyranoside (ONPG) (Sigma-Aldrich, Steinheim, Germany), as described previously. To examine OM permeabilization, CENTA was used as a β-lactamase substrate. In effect of OM permeabilization, the enzyme can hydrolyze CENTA’s β-lactam ring. The resulting color change (2-nitro-5-thiobenzoate anion, TNB^-) could be measured spectrophotometrically at 405 nm. The IM permeabilization was monitored with ONPG, which is a chromogenic β-galactosidase substrate. The product of this reaction ([…]) was measured spectrophotometrically at 405 nm (Multiskan GO Microplate Spectrophotometer, Thermo Fisher Scientific, Vantaa, Finland). […] Bacteria were incubated in lysogeny broth medium (LB; Biocorp, Warszawa, Poland) for 24 h at 37 °C. Subsequently, the cells were diluted in a fresh LB medium and incubated at 37 °C up to a mid-log phase (ca. 3 h). The culture was centrifuged (3 min, 1100× g) and rinsed twice with a PBS. The bacteria were resuspended in PBS up to a concentration of 5 × 10^6 CFU/mL. The final concentration of ONPG and CENTA was 1.5 mM and 0.15 mM, respectively. The ONPG/CENTA in PBS (Sigma-Aldrich, Steinheim, Germany) was used as a negative control. […] Readings were taken every 15 min for 3 h at 37 °C [125, 142, 143, 144]. Experiments were performed in triplicate on 96-well flat bottom microtiter polystyrene plates.

[3] = test system: E. coli ML-35 (ATCC 43827); assay: Inner membrane (IM) permeabilization kinetics, ONPG; type: cell-based, Escherichia coli; details: for ti (t2), incubation time at the intersection of two tangents, IM permeabilization: 32 µg/mL; for ti (t1), incubation time at the intersection of two tangents, IM permeabilization: 64 µg/mL
Description: as §4
Inner and outer membranes permeabilization kinetics were evaluated using Escherichia coli ML-35 (ATCC 43827) and chromogenic substrates—CENTA (BioVision, Milpitas, CA, USA) and o-nitrophenyl-β-d-galactopyranoside (ONPG) (Sigma-Aldrich, Steinheim, Germany), as described previously. To examine OM permeabilization, CENTA was used as a β-lactamase substrate. In effect of OM permeabilization, the enzyme can hydrolyze CENTA’s β-lactam ring.

[4] = test system: human red blood cells (hRBCs); details: cited from earlier work

Compound	HC50 ([1]; red cells of human) [µg/mL]	MIC P. aeruginosa ATCC 9027 (P. aeruginosa ATCC 9027; human serum 10% (v/v)) [µg/mL]	MIC S. aureus ATCC 33591 (S. aureus ATCC 33591; human serum 10% (v/v)) [µg/mL]	MIC C. glabrata ATCC 15126 (C. glabrata ATCC 15126; human serum 10% (v/v)) [µg/mL]	MIC E. coli ML-35 (ATCC 43827) [2] [µg/mL]	other results
CCCCCCCCCCCC(=O)N[C@@H](CCCNC(=N)N)C(=O)N[C@@H](CCCNC(=N)N)C(=O)N[C@@H](CSSC[C@H](NC(=O)[C@H](CCCNC(=N)N)NC(=O)[C@H](CCCNC(=N)N)NC(=O)CCCCCCCCCCC)C(N)=O)C(N)=O [Compound C3] (I: Lauroyl-Arg-Arg-Cys-NH2 / II: Lauroyl-Arg-Arg-Cys-NH2; disulfide I:3-II:3)	36.24 ± 2.35	256 (≈ 209 µM)	32 (≈ 26.1 µM)	> 256	–	–
CCCCCCC(CCCC)C(=O)N[C@@H](CCCNC(=N)N)C(=O)N[C@@H](CCCNC(=N)N)C(=O)N[C@@H](CSSC[C@H](NC(=O)[C@H](CCCNC(=N)N)NC(=O)[C@H](CCCNC(=N)N)NC(=O)C(CCCC)CCCCCC)C(N)=O)C(N)=O (stereo partly drawn) [Compound C7]	>256	256 (≈ 209 µM)	64 (≈ 52.1 µM)	256 (≈ 209 µM)	64 (≈ 52.1 µM)	ti (t2), incubation time at the intersection of two tangents, IM permeabilization [3]: 68.6 min; ti (t1), incubation time at the intersection of two tangents, IM permeabilization [3]: 43.9 min
CCCCCCCCCCCC(=O)N[C@@H](CCCNC(=N)N)C(=O)N[C@@H](CCCNC(=N)N)C(=O)NCCCC[C@H](NC(=O)[C@H](CCCNC(=N)N)NC(=O)[C@H](CCCNC(=N)N)NC(=O)CCCCCCCCCCC)C(N)=O [Compound B3] (Lauroyl-Arg-Arg-Lys([Arg-Arg-Lauroyl])-NH2)	56.29 ± 6.50	64 (≈ 56.4 µM)	16 (≈ 14.1 µM)	> 256	–	–
CCCCCCC(CCCC)C(=O)N[C@@H](CCCNC(=N)N)C(=O)N[C@@H](CCCNC(=N)N)C(=O)NCCCC[C@H](NC(=O)[C@H](CCCNC(=N)N)NC(=O)[C@H](CCCNC(=N)N)NC(=O)C(CCCC)CCCCCC)C(N)=O (stereo partly drawn) [Compound B7]	>256	128 (≈ 113 µM)	8 (≈ 7.05 µM)	64 (≈ 56.4 µM)	32 (≈ 28.2 µM)	–
CCCCCCCCCC(=O)N[C@@H](CCCNC(=N)N)C(=O)N[C@@H](CCCNC(=N)N)C(N)=O [Compound A2, C10-RR-NH2] (Decanoyl-Arg-Arg-NH2)	–	–	–	–	–	HC50 [4]: >256 * µg/mL
CCCCCCCCCCCC(=O)N[C@@H](CCCNC(=N)N)C(=O)N[C@@H](CCCNC(=N)N)C(N)=O [Compound A3, C12-RR-NH2] (Lauroyl-Arg-Arg-NH2)	–	–	–	–	–	HC50 [4]: >256 * µg/mL
CCCCCCCCCC(=O)N[C@@H](CCCNC(=N)N)C(=O)N[C@@H](CCCNC(=N)N)C(=O)N[C@@H](CSSC[C@H](NC(=O)[C@H](CCCNC(=N)N)NC(=O)[C@H](CCCNC(=N)N)NC(=O)CCCCCCCCC)C(N)=O)C(N)=O [Compound C2] (I: Decanoyl-Arg-Arg-Cys-NH2 / II: Decanoyl-Arg-Arg-Cys-NH2; disulfide I:3-II:3)	>256	–	–	–	32 (≈ 27.3 µM)	ti (t2), incubation time at the intersection of two tangents, IM permeabilization [3]: 45.7 min; ti (t1), incubation time at the intersection of two tangents, IM permeabilization [3]: 42.0 min
CCCCCCCCCC(=O)N[C@@H](CCCNC(=N)N)C(=O)N[C@@H](CCCNC(=N)N)C(=O)NCCCC[C@H](NC(=O)[C@H](CCCNC(=N)N)NC(=O)[C@H](CCCNC(=N)N)NC(=O)CCCCCCCCC)C(N)=O [Compound B2] (Decanoyl-Arg-Arg-Lys([Arg-Arg-Decanoyl])-NH2)	>256	–	–	–	32 (≈ 29.7 µM)	–
CCCCCCCC(=O)N[C@@H](Cc1ccccc1)C(=O)N[C@@H](CCCNC(=N)N)C(=O)N[C@@H](CCCNC(=N)N)C(=O)N[C@@H](CSSC[C@H](NC(=O)[C@H](CCCNC(=N)N)NC(=O)[C@H](CCCNC(=N)N)NC(=O)[C@H](Cc1ccccc1)NC(=O)CCCCCCC)C(N)=O)C(N)=O [Compound C5] (I: Octanoyl-FRRC-NH2 / II: Octanoyl-FRRC-NH2; disulfide I:4-II:4)	–	>256	256 (≈ 182 µM)	>256	–	HC50 ([1]; hRBCs 4% (v/v), 37 °C): 117.06 ± 4.60 µg/mL; MIC P. aeruginosa ATCC 9027 (P. aeruginosa ATCC 9027; human serum 0% (v/v)): 8 µg/mL (≈ 5.67 µM); MIC P. aeruginosa ATCC 9027 (P. aeruginosa ATCC 9027; human serum 1% (v/v)): 128 µg/mL (≈ 90.8 µM); MIC S. aureus ATCC 33591 (S. aureus ATCC 33591; human serum 0% (v/v)): 2 µg/mL (≈ 1.42 µM); MIC S. aureus ATCC 33591 (S. aureus ATCC 33591; human serum 1% (v/v)): 64 µg/mL (≈ 45.4 µM); MIC C. glabrata ATCC 15126 (C. glabrata ATCC 15126; human serum 0% (v/v)): 8 µg/mL (≈ 5.67 µM); MIC C. glabrata ATCC 15126 (C. glabrata ATCC 15126; human serum 1% (v/v)): 128 µg/mL (≈ 90.8 µM)
CCCCCCCCCCCCCC(=O)N[C@@H](CCCNC(=N)N)C(=O)N[C@@H](CCCNC(=N)N)C(N)=O [Compound A4, C14-RR-NH2] (Myristoyl-Arg-Arg-NH2)	–	256 (≈ 474 µM)	64 (≈ 119 µM)	256 (≈ 474 µM)	32 (≈ 59.3 µM)	ti (t2), incubation time at the intersection of two tangents, IM permeabilization [3]: 77.6 min; ti (t1), incubation time at the intersection of two tangents, IM permeabilization [3]: 39.0 min
CCCCCCCC(=O)N[C@@H](CCCNC(=N)N)C(=O)N[C@@H](CCCNC(=N)N)C(N)=O [Compound A1, C8-RR-NH2] (Octanoyl-Arg-Arg-NH2)	–	–	–	–	–	HC50 [4]: >256 * µg/mL
